# Like-named read-outs stand apart in the source and are kept apart here.
# Legend:
# [1] = Slow cooling crystallization (Example 64); type: physicochemical; conditions: slow cooling to RT
# Excerpt: The suspensions were filtered to obtain saturated solution, and it was kept in an oil bath to cool to RT. The solids obtained were characterized.
# The suspensions were filtered to obtain a saturated solution, and it was kept in an oil bath which was allowed to cool to RT naturally. Any solids obtained were characterized. […] No new phosphate Form was obtained.
# [2] = Pharmacokinetics in rats (Example 17); type: in vivo, Sprague-dawley rats; conditions: rat, PO 2 mg/kg, mean
# Method: To evaluate the pharmacokinetics (PK) of Phosphate Polymorphic Form A, suspensions or solutions were dosed by either oral gavage (0.5% methyl cellulose) or IV (60% PEG400/40% saline) in normal, healthy, male Sprague-dawley rats with serial blood collection focused on the first 48 hours of exposure. Rats were dosed with vehicle or test compounds at 1 mg/kg (IV) or 2 mg/kg (PO). Approximately 0.2 mL blood was collected at each time point. All blood samples were collected jugular vein puncture. All blood samples were transferred into plastic microcentrifuge tubes containing 5 μL of EDTA-K2 as anti-coagulant or pre-chilled commercial EDTA-K2 tubes and placed on wet ice until centrifugation. Harvested blood samples were centrifuged within 30 min of collection at 7,000 rpm for 10 minutes. The extracts were analyzed for compound concentration by LC/MS/MS. Data were analyzed with Phoenix WinNonlin 6.3 using the IV-Noncompartmental model 201 (IV bolus input) and PO-Noncompartmental model 200 (extravascular input) methods.
# [3] = Slurry and stability study of phosphate (30.4, Example 35); type: physicochemical; conditions: IPAC, EA
# Excerpt: The suspensions were filtered and characterized by XRPD.
# [4] = Mechanical treatment (grinding) of Phosphate Form A; type: physicochemical; conditions: for crystal form after grinding (XRPD): ground manually with mortar and pestle, 3-5 minutes
# Excerpt: The crystal form was unchanged after grinding.
# [5] = Preliminary (estimated) solubility study of TPA023B Phosphate Form A (30.3, Example 34); type: physicochemical; conditions: estimated by visual observation
# Method: Then the mixture was agitated in a shaker block for at least 30 mins. Additional solvent was added in a stepwise manner until all solids were dissolved. The dissolution was checked by visual observation and the amount of solvent required to dissolve all the solids was recorded.
# [6] = Solid-state stability of Phosphate Form A at 40° C./75% RH and 25° C./95% RH (Example 36); type: physicochemical; conditions: up to two weeks
# [7] = One week accelerated stability testing (Example 3); type: physicochemical
# Method: The stability of Phosphate Polymorphic Form A and Free Base Polymorphic Form A were evaluated under accelerated conditions.
structure (smiles),measurement,setting,value
"CC(C)(O)c1cnn2c(-c3ccc(F)c(-c4c(F)cccc4C#N)c3)cnc2n1 [Phosphate Polymorphic Form A, 2′,6-difluoro-5′-[3-(1-hydroxy-1-methylethyl)-imidazo[1,2-b][1,2,4]triazin-7-yl]biphenyl-2-carbonitrile]",Result (solid form obtained),[1]; solvent 2-butanone,Phosphate Form A
same,Result (solid form obtained),[1]; solvent 2-methyl tetrahydrofuran,No solid
same,Result (solid form obtained),[1]; solvent ACN,Phosphate Form A
same,Result (solid form obtained),[1]; solvent Anisole,No solid
same,Result (solid form obtained),[1]; solvent BAC,Phosphate Form A
same,Result (solid form obtained),[1]; solvent Butanol,Free Base Form E
same,Result (solid form obtained),[1]; solvent EA,No solid
same,Result (solid form obtained),[1]; solvent Isoamyl alcohol,Free Base Form E
same,Result (solid form obtained),[1]; solvent MAC,No solid
same,Result (solid form obtained),[1]; solvent THF,No solid
same,AUCExtra (%),[2],6.25%
same,crystal form after slurry (XRPD),"[3]; 100 mg slurried in 2 mL THF, 2-Me THF, acetone and ACN at RT",remains unchanged
same,stability in solvents,"[3]; THF, 2-Me-THF, Acetone, MTBE or ACN",stable
same,crystallinity after grinding,[4],decreased
same,crystal form after grinding (XRPD),[4]; listed as Phosphate Form A,unchanged
same,crystal form after grinding (XRPD),[4]; listed as TPA023B Phosphate Form A,remained unchanged
same,crystal form after grinding (XRPD),[4]; listed as phosphate Form A,no change
same,solubility,"[5]; 1,4-Dioxane, organic solvent or mixture, thermodynamic from solid, 1,4-Dioxane, read-out: Solubility",25000 µg/mL
same,solubility,"[5]; 2-Me THF, organic solvent or mixture, thermodynamic from solid, 2-Me THF, read-out: Solubility",20000 µg/mL
same,solubility,"[5]; ACN, organic solvent or mixture, thermodynamic from solid, ACN, read-out: Solubility",< 2000 µg/mL
same,solubility,"[5]; DCM, organic solvent or mixture, thermodynamic from solid, DCM, read-out: Solubility",2000 µg/mL
same,solubility,"[5]; DMF, organic solvent or mixture, thermodynamic from solid, DMF, read-out: Solubility",96000 µg/mL
same,solubility,"[5]; DMSO, organic solvent or mixture, thermodynamic from solid, DMSO, read-out: Solubility",93000 µg/mL
same,solubility,"[5]; EA, organic solvent or mixture, thermodynamic from solid, EA, read-out: Solubility",< 2000 µg/mL
same,solubility,"[5]; EA, listed as TPA023B Phosphate Form A",<2000 µg/mL
same,solubility,"[5]; Heptane, listed as TPA023B Phosphate Form A",<1000 µg/mL
same,solubility,"[5]; IPA, organic solvent or mixture, thermodynamic from solid, IPA, read-out: Solubility",2500 µg/mL
same,solubility,"[5]; MTBE, organic solvent or mixture, thermodynamic from solid, MTBE, read-out: Solubility",< 2000 µg/mL
same,solubility,"[5]; MTBE, listed as TPA023B Phosphate Form A",<1500 µg/mL
same,solubility,"[5]; THF, organic solvent or mixture, thermodynamic from solid, THF, read-out: Solubility",28000 µg/mL
same,solubility,"[5]; Water, listed as TPA023B Phosphate Form A",<2000 µg/mL
same,solubility,"[5]; acetone, organic solvent or mixture, thermodynamic from solid, Acetone, read-out: Solubility",7000 µg/mL
same,solubility,"[5]; ethanol, organic solvent or mixture, thermodynamic from solid, Ethanol, read-out: Solubility",3000 µg/mL
same,solubility,"[5]; heptane, organic solvent or mixture, thermodynamic from solid, Heptane, read-out: Solubility",< 2000 µg/mL
same,solubility,"[5]; methanol, organic solvent or mixture, thermodynamic from solid, Methanol, read-out: Solubility",9500 µg/mL
same,solubility,"[5]; water, thermodynamic from solid, Water, read-out: Solubility",< 2000 µg/mL
same,crystal form after storage,[6]; 25° C./95% RH,remained unchanged
same,crystal form after storage,[6]; 40° C./75% RH,remained unchanged
same,Assay (%),"[7]; 40° C./75% RH (open), 1 week",97.12%
same,Purity (%),"[7]; 40° C./75% RH (open), 1 week",99.02%
same,Assay (%),"[7]; 80° C. (open), 1 week",95.99%
same,Purity (%),"[7]; 80° C. (open), 1 week",98.94%
same,Purity (%),[7]; Initial,98.91%
same,Assay (%),"[7]; Initial, assay criterion 95%-105%",104.60%
same,Assay (%),"[7]; Light, ~50 h",95.25%
same,Purity (%),"[7]; Light, ~50 h",97.55%
